From US7063977B2, “Enzymatic resolution of t-butyl taxane derivatives” (Bristol-Myers Squibb Company, priority 2001, dated 2006)
Where two headings read alike, the source gives them in different places.

Legend:
human tumor xenografts [1] = conditions: oral; xenografts implanted in athymic mice
[2] = oral administration; Eiseman et al., Suffness et al., quoted from WO 98/53811; cited from earlier work
human tumor xenografts [3] = conditions: oral; xenografts implanted in athymic rates
sc M109 = conditions: oral, doses as high as 160 mg/kg/inj; toxic doses not reached; cited from earlier work
[4] = up to 160 mg/kg/day, Suffness et al.; cited from earlier work
tumors in mice = conditions: oral administration; AACR 1999 abstract 1905; cited from earlier work

Structure (SMILES)	activity of orally administered drug against human tumor xenografts (human tumor xenografts [1])	absorbed when administered orally [2]	activity of orally administered drug against human tumor xenografts (human tumor xenografts [3])	efficacy in murine tumor models (sc M109) (sc M109)	antitumor activity on oral administration [4]	oral activity against tumors in mice (tumors in mice)
CC(=O)O[C@H]1C(=O)[C@@]2(C)[C@H]([C@H](OC(=O)c3ccccc3)[C@]3(O)C[C@H](OC(=O)[C@H](O)[C@@H](NC(=O)c4ccccc4)c4ccccc4)C(C)=C1C3(C)C)[C@]1(OC(C)=O)CO[C@@H]1C[C@@H]2O [paclitaxel]	unsuccessful	less than 1%	unsuccessful	without signs of any efficacy	no evidence of antitumor activity	–
CC(=O)O[C@H]1C(=O)[C@@]2(C)[C@H]([C@H](OC(=O)c3ccccc3)[C@]34OC(=O)O[C@H]3[C@H](OC(=O)[C@H](O)[C@H](CC(C)C)NC(=O)OC(C)(C)C)C(C)=C1C4(C)C)[C@]1(OC(C)=O)CO[C@@H]1C[C@@H]2O [IDN-5109]	–	–	–	–	–	oral activity
